Tests used:
[1] = system: Phakopsora pachyrhizi (F129L); assay: Protective control of soybean rust on soybeans (PHAKPA P2); assay type: in vivo; conditions: for % PHAKPA (F129L) Disease level P2 at 4 ppm: protective P2, 4 ppm; for % PHAKPA (F129L) Disease level P2 at 4 ppm / % PHAKPA (F129L) Disease level P2 at 16 ppm: soybean rust F129L; for % PHAKPA (F129L) Disease level P2 at 16 ppm: protective P2, 16 ppm; for PHAKPA (F129L) Disease level (%) P2 at 16 ppm / PHAKPA (F129L) Disease level (%) P2 at 4 ppm: P2 protective, % diseased leaf area
[2] = system: Phakopsora pachyrhizi (F129L); assay: Protective control of soybean rust on soybeans (PHAKPA P6); assay type: in vivo; conditions: for % PHAKPA (F129L) Disease level P6 at 4 ppm: protective P6, 4 ppm; for % PHAKPA (F129L) Disease level P6 at 4 ppm / % PHAKPA (F129L) Disease level P6 at 16 ppm: soybean rust F129L; for % PHAKPA (F129L) Disease level P6 at 16 ppm: protective P6, 16 ppm; for PHAKPA (F129L) Disease level (%) P6 at 16 ppm / PHAKPA (F129L) Disease level (%) P6 at 4 ppm: P6 protective, % diseased leaf area

Structure (SMILES)	% PHAKPA (F129L) Disease level P2 at 4 ppm [1]	% PHAKPA (F129L) Disease level P2 at 16 ppm [1]	% PHAKPA (F129L) Disease level P6 at 4 ppm [2]	% PHAKPA (F129L) Disease level P6 at 16 ppm [2]	PHAKPA (F129L) Disease level (%) P2 at 16 ppm [1]	PHAKPA (F129L) Disease level (%) P6 at 16 ppm [2]	PHAKPA (F129L) Disease level (%) P2 at 4 ppm [1]	PHAKPA (F129L) Disease level (%) P6 at 4 ppm [2]
CO/N=C(/C(=O)OC)c1cccc(C(F)F)c1CO/N=C(\C)c1cccc(C(F)(F)F)c1 [Ex. 24]	36%	60%	4%	28%				
CNC(=O)/C(=N/OC)c1cccc(C)c1CO/N=C(/c1ccc(F)cc1)C(F)F [Ex. 27]	5%	0%	32%	0%	0%	0%		
CO/N=C(/C(=O)OC)c1cccc(C)c1CO/N=C(\C)c1cccc(OC(F)(F)F)c1 [Ex. 28]		0%		0%	30%	18%		
CO/N=C(/C(=O)OC)c1cccc(C)c1CO/N=C(\C)c1ccccc1 [Ex. 30]	53%	1%	77%	2%	2%	1%		
CNC(=O)/C(=N/OC)c1cccc(C)c1CO/N=C(\C)c1ccccc1 [Ex. 31]	0%	0%	4%	0%			0%	12%
CO/N=C(/C(=O)OC)c1cccc(C)c1CO/N=C(\C)c1ccccc1C(F)(F)F [Ex. 36]	100%	42%	100%	43%	47%	57%		
CO/N=C(/C(=O)OC)c1cccc(C)c1CO/N=C(\C)c1ccc(C(F)(F)F)cc1 [Ex. 37]	40%	3%	40%	2%	0%	0%		
CNC(=O)/C(=N/OC)c1cccc(C)c1CO/N=C(\C)c1ccc(Cl)c(Cl)c1 [Ex. 41]	15%	9%	36%	14%			4%	35%
CO/N=C(/C(=O)OC)c1cccc(C)c1CO/N=C(\C)c1cccc(Br)c1 [Ex. 56]	43%	24%	67%	19%	32%	15%		
CNC(=O)/C(=N/OC)c1cccc(C)c1CO/N=C(\C)c1cccc(Br)c1 [Ex. 58]	2%	0%	4%	0%			0%	4%
CNC(=O)/C(=N/OC)c1cccc(C)c1CO/N=C(\C)c1ccc(Cl)c(C(F)(F)F)c1 [Ex. 60]	23%	1%	53%	2%	0%	0%		
CNC(=O)/C(=N/OC)c1cccc(C)c1CO/N=C(/c1ccccc1)C(F)F [Ex. 73]	0%		19%				1%	37%
CO/N=C(/C(=O)OC)c1cccc(C)c1CO/N=C(\C)c1cccc(F)c1 [Ex. 86]	12%	3%	23%	3%	6%	7%		
CO/N=C(/C(=O)OC)c1cccc(C)c1CO/N=C(\C)c1cccc(C#N)c1 [Ex. 104]	22%	15%	19%	11%	37%	28%		
CNC(=O)/C(=N/OC)c1cccc(C)c1CO/N=C(\C)c1ccc(-c2ccccc2)cc1 [Ex. 113]	25%	26%	41%	25%	17%	6%		
CNC(=O)/C(=N/OC)c1cccc(C)c1CO/N=C(\C)c1ccccc1Br [Ex. 120]	43%	4%	90%	8%	6%	15%		
CNC(=O)/C(=N/OC)c1cccc(C)c1CO/N=C(\C)c1ccccc1OC [Ex. 126]	87%	34%	95%	70%	32%	60%		
CNC(=O)/C(=N/OC)c1cccc(C)c1CO/N=C(\C)c1cc(Cl)ccc1Cl [Ex. 130]	20%	1%	40%	1%			33%	67%
CO/N=C(/C(=O)OC)c1cccc(C)c1CO/N=C(\C)c1ccc(Cl)cc1 [Ex. 154]	30%	13%	63%	9%	25%	17%		
CO/N=C(/C(=O)OC)c1cccc(C)c1CO/N=C(\C)c1ccc(C#N)cc1 [Ex. 155]	97%	30%	93%	20%	23%	18%		
CNC(=O)/C(=N/OC)c1cccc(C)c1CO/N=C(\C)c1ccc(C#N)cc1 [Ex. 159]	28%	2%	28%	1%	0%	0%		
CCc1ccc(/C(C)=N/OCc2c(C)cccc2/C(=N\OC)C(=O)NC)cc1 [Ex. 165]	0%	0%	17%	0%			0%	27%
CO/N=C(\C)c1ccc(/C(C)=N/OCc2c(C)cccc2/C(=N\OC)C(=O)OC)cc1 [Ex. 181]	22%	11%	33%	5%	12%	5%		
CC/C(=N\OCc1c(C)cccc1/C(=N\OC)C(=O)NC)c1cccc(C(F)(F)F)c1 [Ex. 188]	1%	0%	11%	0%			2%	30%
CNC(=O)/C(=N/OC)c1cccc(C)c1CO/N=C(\C)c1cccc(-c2noc(C(F)(F)F)n2)c1 [Ex. 205]					1%	1%		
CO/N=C(/C(=O)OC)c1cccc(C)c1CO/N=C(\C)c1ccc(OC)cc1 [Ex. 216]	77%	13%	80%	29%	20%	15%		
COC=C(C(=O)OC)c1cccc(C)c1CON=C(C)c1cccc(C(F)(F)F)c1 [Ex. 231]	0%	0%	2%	0%			0%	2%
COC=C(C(=O)OC)c1cccc(C)c1CON=C(C)c1ccccc1C(F)(F)F [Ex. 244]	14%	0%	15%	2%	0%	2%		
CNC(=O)/C(=N/OC)c1cccc(C)c1CO/N=C(\C)c1cccc(N2CC(F)(F)C2)c1 [Ex. 282]		15%		18%	15%	18%		
CO/N=C(/C(=O)OC)c1ccccc1CO/N=C(\C)c1cccc(C(F)(F)F)c1 [Trifloxystrobin, trifloxystrobin, reference compound]					17%	33%	71%	79%

Reference: US20230172204A1 (BASF SE, priority 2020, published 2023)
